Tests used:
Bombyx AKHR [1] = target: T1, Bombyx AKHR (Bombyx mori, UniProt Q8T6U9); details: compared with AKH1; ref [12]; cited from earlier work
T1 sequence (Q8T6U9 1-405): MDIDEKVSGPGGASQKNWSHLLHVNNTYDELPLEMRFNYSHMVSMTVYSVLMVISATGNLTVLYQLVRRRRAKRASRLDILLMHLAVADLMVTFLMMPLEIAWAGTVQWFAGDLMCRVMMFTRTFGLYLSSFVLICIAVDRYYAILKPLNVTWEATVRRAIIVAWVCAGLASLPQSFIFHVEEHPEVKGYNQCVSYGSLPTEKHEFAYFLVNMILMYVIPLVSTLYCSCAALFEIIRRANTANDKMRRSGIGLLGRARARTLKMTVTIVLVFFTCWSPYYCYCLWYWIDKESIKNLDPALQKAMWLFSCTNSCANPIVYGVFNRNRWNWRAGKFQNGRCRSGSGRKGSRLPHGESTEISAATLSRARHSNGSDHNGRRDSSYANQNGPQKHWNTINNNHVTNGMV

Bombyx AKHR [2] = target: T1, Bombyx AKHR; type: cell-based

Row | Substance | affinity of activation of Bombyx AKHR (Bombyx AKHR [1]) | effect of toxin pre-treatment on cAMP generation (Bombyx AKHR [2])
1 | Heliothis zea hypertrehalosaemic hormone [Hez-HrTH] | higher affinity than that of AKH1 | –
2 | Pertussis toxin [PTX] | – | no effect on cAMP generation
3 | cholera toxin [CTX] | – | remarkable increase in the cellular levels of cAMP
